# In US8486863B2, “Activators of lateral root formation” (VIB VZW, priority 2006, dated 2013):
# Assays:
# [1] = system: auxin signaling mutants; assay: Effect of activators on lateral root density of auxin signaling mutants (Table 2); assay type: in vivo, Arabidopsis thaliana
# From the text: (§1) Afb1, Afb2, Afb3 and the triple mutant Tirlafb2afb3 were described by Dhamasiri et al. (2005). Tir1 was described by Ruegger et al., (1998); 1aa28 by Rogg et al., (2001); Tir7-1 by Ruegger et al., (1997); the Cyp79b2b3 double mutant by Ljung et al. (2005); the arf7arf19 double mutant by Fukaki et al., (2005); Aux1 by Bennett et al., (1996); Xbat32 by Nodzon et al., (2004), Axr1-12 by Timpte et al., (1995), Slr1 by Fukaki et al., 2002 and Axr3-1 by Collet et al., (2000) and the mutants were obtained from the publishing authors.
# (§2) For phenotypic analysis, all mutants were grown on vertically oriented square plates (Greiner Labortechnik, Austria) with solid medium derived from standard MS medium. The plates were put in a growth chamber under continuous light (110 μE.m2.s1 photosynthetically active radiation, supplied by cool-white fluorescent tungsten tubes; Osram) at 22° C. Three days after germination, the mutant plants were transferred to medium supplemented with compounds and were left to grow for another 7 days. After this, root length and number of lateral roots were counted using ImageJ 1.34 freeware.
# [2] = system: auxin signaling mutants; assay: Effect of A12 and NAA on lateral root density and root length of auxin signaling mutants (Table 1); assay type: in vivo, Arabidopsis thaliana; parameters: Root length: unit not given here; settings: 3 uM
# From the text: as §1, §2
# DMSO is used as negative control.
# [3] = system: Wild-type Arabidopsis thaliana; assay: Dose-response analysis of lateral root density and root length; assay type: in vivo
# Experimental: FIG. 3: Dose-response analysis of class 1 (upper panel) and class 2 (lower panel) activators. Wild-type Arabidopsis thaliana seeds were germinated under standard conditions on agar plates. After 3 days of germination, seedlings were transferred to agar plates containing compound at different concentrations. Lateral root density was measured 10 days after germination. Bars represent standard errors.
# FIG. 4: Dose-response analysis of A2, A11, A12, A14 and NAA. Wild-type Arabidopsis thaliana seeds were germinated under standard conditions on agar plates. After 3 days of germination, seedlings were transferred to agar plates containing compound at different concentrations and 1% DMSO. Plants transferred to agar plates containing 1% DMSO and no compound were used as controls. Lateral root density (left panels) and root length (right panels) were measured 10 days after germination. Bars represent standard errors.
# For further phenotypic analysis, all plants were grown on vertically oriented square plates (Greiner Labortechnik, Austria) with solid medium derived from standard MS medium under the same conditions. 3 DAG plants were transferred to medium supplemented with compounds and were left to grow for another 7 days. After this, root length and number of LRs were counted using ImageJ 1.34 freeware.
# As a subsequent step, the phenotypic effect of the 16 selected activators was determined in a dose-response analysis in which LR density (number of LRs per cm) was quantified (FIG. 3). Based upon potency and structure, two different classes of activators could be identified.
# [4] = tir TM (Tir1afb2afb3 triple mutant)
structure (smiles),measurement,setting,value
"O=C(O)Cc1cccc2ccccc12 [NAA, 1-naphthylacetic acid, reference compound]",lateral root density,"[1]; Afb1-1, 0.1 uM",13.49 LR/cm
same,lateral root density,"[1]; Afb1-1, 0.3 uM",8.76 LR/cm
same,lateral root density,"[1]; Afb1-1, 1 uM",21.43 LR/cm
same,lateral root density,"[1]; Afb1-1, 3 uM",47.81 LR/cm
same,lateral root density,"[1]; Afb2-1, 0.1 uM",14.57 LR/cm
same,lateral root density,"[1]; Afb2-1, 0.3 uM",8.98 LR/cm
same,lateral root density,"[1]; Afb2-1, 1 uM",28.72 LR/cm
same,lateral root density,"[1]; Afb2-1, 3 uM",59.72 LR/cm
same,lateral root density,"[1]; Afb3-1, 0.1 uM",15.27 LR/cm
same,lateral root density,"[1]; Afb3-1, 0.3 uM",8.93 LR/cm
same,lateral root density,"[1]; Afb3-1, 1 uM",27.72 LR/cm
same,lateral root density,"[1]; Afb3-1, 3 uM",55.01 LR/cm
same,lateral root density,"[1]; Arf7Arf19, 0.1 uM",0.00 LR/cm
same,lateral root density,"[1]; Arf7Arf19, 0.3 uM",0.00 LR/cm
same,lateral root density,"[1]; Arf7Arf19, 1 uM",0.17 LR/cm
same,lateral root density,"[1]; Arf7Arf19, 3 uM",13.18 LR/cm
same,lateral root density,"[1]; Arf16, 0.1 uM",8.05 LR/cm
same,lateral root density,"[1]; Arf16, 0.3 uM",6.63 LR/cm
same,lateral root density,"[1]; Arf16, 1 uM",10.83 LR/cm
same,lateral root density,"[1]; Arf16, 3 uM",17.17 LR/cm
same,lateral root density,"[1]; Arf17, 0.1 uM",6.57 LR/cm
same,lateral root density,"[1]; Arf17, 0.3 uM",10.34 LR/cm
same,lateral root density,"[1]; Arf17, 1 uM",0.47 LR/cm
same,lateral root density,"[1]; Arf17, 3 uM",24.68 LR/cm
same,lateral root density,"[1]; Axrt-12, 0.1 uM",8.04 LR/cm
same,lateral root density,"[1]; Axrt-12, 0.3 uM",9.25 LR/cm
same,lateral root density,"[1]; Axrt-12, 1 uM",9.03 LR/cm
same,lateral root density,"[1]; Axrt-12, 3 uM",27.55 LR/cm
same,lateral root density,"[1]; Cyp79, 0.1 uM",15.83 LR/cm
same,lateral root density,"[1]; Cyp79, 0.3 uM",6.85 LR/cm
same,lateral root density,"[1]; Cyp79, 1 uM",22.20 LR/cm
same,lateral root density,"[1]; Cyp79, 3 uM",50.78 LR/cm
same,lateral root density,"[1]; Iaa28-1, 0.1 uM",3.57 LR/cm
same,lateral root density,"[1]; Iaa28-1, 0.3 uM",7.46 LR/cm
same,lateral root density,"[1]; Iaa28-1, 1 uM",11.92 LR/cm
same,lateral root density,"[1]; Iaa28-1, 3 uM",40.09 LR/cm
same,lateral root density,"[1]; Tir1-1, 0.1 uM",5.14 LR/cm
same,lateral root density,"[1]; Tir1-1, 0.3 uM",11.34 LR/cm
same,lateral root density,"[1]; Tir1-1, 1 uM",6.74 LR/cm
same,lateral root density,"[1]; Tir1-1, 3 uM",18.30 LR/cm
same,lateral root density,"[1]; Tir7-1, 0.1 uM",15.76 LR/cm
same,lateral root density,"[1]; Tir7-1, 0.3 uM",5.78 LR/cm
same,lateral root density,"[1]; Tir7-1, 1 uM",14.79 LR/cm
same,lateral root density,"[1]; Tir7-1, 3 uM",46.33 LR/cm
same,lateral root density,"[1]; TirTM, 0.1 uM",8.04 LR/cm
same,lateral root density,"[1]; TirTM, 0.3 uM",18.89 LR/cm
same,lateral root density,"[1]; TirTM, 1 uM",15.81 LR/cm
same,lateral root density,"[1]; TirTM, 3 uM",45.09 LR/cm
same,lateral root density,"[1]; Xbat32, 0.1 uM",4.27 LR/cm
same,lateral root density,"[1]; Xbat32, 0.3 uM",9.26 LR/cm
same,lateral root density,"[1]; Xbat32, 1 uM",12.70 LR/cm
same,lateral root density,"[1]; Xbat32, 3 uM",33.67 LR/cm
same,Root length,[2]; CDKB DN,0.42
same,LR density,[2]; Col-0,52.98
same,Root length,[2]; Col-0,1.08
same,LR density,[2]; Ws,45.59
same,Root length,[2]; Ws,0.87
same,LR density,[2]; Xbat32,36.83
same,Root length,[2]; Xbat32,1.33
same,LR density,[2]; afb1-1,51.36
same,Root length,[2]; afb1-1,0.93
same,LR density,[2]; afb2-1,51.08
same,Root length,[2]; afb2-1,0.87
same,LR density,[2]; afb3-1,46.76
same,Root length,[2]; afb3-1,0.94
same,Root length,[2]; arf7arf19 DM (double mutant),0.87
same,Root length,[2]; aux1,0.93
same,LR density,[2]; axr1-12,40.22
same,Root length,[2]; axr1-12,1.12
same,LR density,[2]; axr5-1,27.56
same,Root length,[2]; axr5-1,1.27
same,LR density,[2]; cyp79b2-3 DM (double mutant),37.27
same,Root length,[2]; cyp79b2-3 DM (double mutant),1.43
same,LR density,[2]; iaa28-1,48.10
same,Root length,[2]; iaa28-1,0.86
same,LR density,[2]; lax3,63.09
same,Root length,[2]; lax3,1.02
same,LR density,[2]; msg2-1,37.22
same,Root length,[2]; msg2-1,1.13
same,LR density,[2]; slr-1,0.00
same,Root length,[2]; slr-1,0.84
same,LR density,[2]; tir1-1,57.73
same,Root length,[2]; tir1-1,0.99
same,LR density,[2]; tir7-1,41.72
same,Root length,[2]; tir7-1,0.87
same,LR density,[2]; [4],47.00
same,Root length,[2]; [4],0.80
same,LR density response to increasing compound concentration,[3]; FIG. 4,threshold-like mechanism
same,compound concentration that increased root density five times compared to controls,"[3]; FIG. 4, 10 days after germination",1.5 µM
same,Root length,"[3]; at the concentration that increased root density five times (20 μM A11, 1.5 μM NAA)",0.2 times the root length of controls
